Counter-ions that a name gives are not always drawn. Like-named read-outs stand apart in the source and are kept apart here.
Target: T1, E-cNOS (Type 3) (Bos taurus, UniProt P29473)
T1 construct: the resulting supernatant was used as the crude enzyme sample of E-cNOS; endogenous in cells; host or cells: CPAE (cow pulmonary arterial endothelium cells), 1% Triton X-100 extract, 100,000 x g supernatant
Assay: biochemical

[1] = mean of one to four independent experiments, crude enzyme, 100 nM L-[3H]arginine, read-out: IC50 value, E-cNOS (Type 3)

T1 sequence (P29473 2-1205): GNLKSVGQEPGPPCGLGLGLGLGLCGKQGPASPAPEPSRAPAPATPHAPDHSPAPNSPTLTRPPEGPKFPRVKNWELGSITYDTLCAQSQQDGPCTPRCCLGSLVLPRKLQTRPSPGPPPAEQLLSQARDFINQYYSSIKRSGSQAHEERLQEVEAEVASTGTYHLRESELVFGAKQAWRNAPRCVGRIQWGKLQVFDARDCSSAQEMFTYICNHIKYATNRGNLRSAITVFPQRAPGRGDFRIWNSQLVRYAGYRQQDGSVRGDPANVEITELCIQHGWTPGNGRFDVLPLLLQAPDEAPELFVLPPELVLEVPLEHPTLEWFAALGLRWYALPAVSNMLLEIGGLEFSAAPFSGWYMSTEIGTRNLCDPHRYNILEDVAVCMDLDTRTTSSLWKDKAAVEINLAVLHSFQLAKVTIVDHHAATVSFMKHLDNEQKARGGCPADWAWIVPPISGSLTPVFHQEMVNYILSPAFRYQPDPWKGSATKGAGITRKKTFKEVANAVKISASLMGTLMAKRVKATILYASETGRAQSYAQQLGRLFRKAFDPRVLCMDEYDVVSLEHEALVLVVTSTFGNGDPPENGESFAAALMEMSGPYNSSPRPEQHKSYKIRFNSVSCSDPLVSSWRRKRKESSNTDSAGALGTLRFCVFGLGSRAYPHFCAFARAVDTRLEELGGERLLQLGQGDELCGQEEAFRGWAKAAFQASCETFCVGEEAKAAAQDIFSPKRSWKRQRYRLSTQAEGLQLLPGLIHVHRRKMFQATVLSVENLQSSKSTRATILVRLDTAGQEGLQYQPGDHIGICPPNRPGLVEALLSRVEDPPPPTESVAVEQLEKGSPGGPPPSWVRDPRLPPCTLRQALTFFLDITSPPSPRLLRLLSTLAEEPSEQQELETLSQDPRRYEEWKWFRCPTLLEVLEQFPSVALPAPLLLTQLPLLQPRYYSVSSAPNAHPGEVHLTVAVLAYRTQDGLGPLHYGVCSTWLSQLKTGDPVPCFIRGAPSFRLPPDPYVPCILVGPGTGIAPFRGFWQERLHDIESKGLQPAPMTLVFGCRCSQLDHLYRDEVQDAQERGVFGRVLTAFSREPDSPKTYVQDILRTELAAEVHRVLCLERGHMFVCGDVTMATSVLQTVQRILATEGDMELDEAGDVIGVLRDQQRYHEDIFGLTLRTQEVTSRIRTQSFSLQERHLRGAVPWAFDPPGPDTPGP
Method: The crude enzyme sample of E-cNOS was prepared by the following procedure. A cow pulmonary arterial endothielium cell (CPAE) was cultured in a MEM medium containing 20% FBS. […] A suitable amount of Ca- and Mg-free phosphate buffer (pH 7.4) was added to the precipitating cells and they were centrifuged at 1,000 rpm for 10 min. The same step was repeated to wash the cells which, upon addition of 50 mM Tris-HCl (pH 7.4) containing 1% Triton X-100 and 1 mM DTT, were left to stand in ice for 1 h. Subsequently, the mixture was homogenized for 3 min and kept in ice for 30 min with occasional stirring. Finally, the mixture was centrifuged at 100,000×g for 60 min and the resulting supernatant was used as the crude enzyme sample of E-cNOS.
The reaction was started by addition of L-[^3H]arginine and following incubation at 37° C. for 10 min, the reaction was terminated by addition of 2 ml of 50 mM Tris-HCl (pH 5.5) containing 1 mM EDTA and placing the mixture on ice. The reaction solution was passed through a cation-exchange resin column (Dowex AG50WX-8, Na^+ form, 3.2 ml) to separate the reaction product L-[^3H]citrulline from the unreacted residual substrate L-[^3H]arginine. The eluate was combined with another eluate resulting from the passage of a given amount of distilled water through the column and put into a minivial for recovery of L-[^3H]citrulline. Thereafter, a scintillation fluid was added and the contained radioactivity was measured with a liquid scintillation counter to determine the amount of L-[^3H]citrulline.
The activity of N-cNOS or E-cNOS was determined by subtracting the activity as detected in the absence of CaCl2 and calmodulin from the activity as detected in the presence of CaCl2 and calmodulin. […] The protein concentration of each crude enzyme sample was determined with a micro-assay kit of Biorad Co. Each experiment was conducted in a duplicate.

Structure (SMILES): CCSC(=N)Nc1cccc(C2(N)CCCCC2)c1 [Example 144, N-(1-(3-(S-ethylisothioureido)phenyl)cyclohexyl)amine dihydrochloride]
- IC50: 0.898 µM

Structure (SMILES): CCSC(=N)Nc1cccc(C(C)NC)c1 (centres unmarked) [Example 112, N-(1-(3-(S-ethylisothiourido)phenyl)ethyl)methylamine dihydrochloride]
- IC50 [1]: 0.408 µM

Structure (SMILES): CCN=C(N)Nc1cccc(C2(N)CCCCC2)c1 [Example 234, N-(1-(3-(N′-ethylguanidino)phenyl)cyclohexyl)amine dihydrochloride]
- IC50: 1.17 µM

Structure (SMILES): NC(=N[N+](=O)[O-])Nc1cccc(C2(N)CCCC2)c1 [Example 171, N-(1-(3-(N′-nitroguanidino)phenyl)cyclopentyl)amine hydrochloride]
- IC50 [1]: 0.0292 µM

Structure (SMILES): CCSC(=N)Nc1cccc(CNN)c1 [Example 355, 3-(S-ethylisothioureido)phenylmethylhydrazine trihydrochloride]
- IC50 [1]: 0.662 µM

Structure (SMILES): CCSC(=N)Nc1ccc(CC(C)(C)N)cc1 [Example 193, N-(1,1-dimethyl-2-(4-(S-ethylisothioureido)phenyl)ethyl)amine dihydrochloride]
- IC50: 1.54 µM

Structure (SMILES): CCSC(=N)Nc1ccc(CCN)c(OC)c1 [Example 482, N-(2-(4-(S-ethylisothioureido)-2-methoxyphenyl)ethyl)amine dihydrochloride]
- IC50: 1.99 µM

Structure (SMILES): CCN=C(N)Nc1cccc(C2(N)CCCC2)c1 [Example 236, N-(1-(3-(N′-ethylguanidino)phenyl)cyclopentyl)amine dihydrochloride]
- IC50 [1]: 0.325 µM

Structure (SMILES): CCSC(=N)Nc1ccc(OC)c(CN)c1OC [Example 298, N-(2,6-dimethoxy-3-(S-ethylisothioureido)phenylmethyl)amine dihydrochloride]
- IC50 [1]: 4.14 µM

Structure (SMILES): N=C(NCCC[C@H](N)C(=O)O)NC1CC1 [L-CPA, N^G-cyclpropyl-L-arginine, reference compound]
- IC50 [1]: 0.987 µM

Structure (SMILES): CSC(=N)Nc1cccc(C2(N)CCC2)c1 [Example 160, N-(1-(3-(S-methylisothioureido)phenyl)cyclobutyl)amine dihydrochloride]
- IC50 [1]: 0.477 µM

Structure (SMILES): CCN=C(N)Nc1ccc(N(C)CC)c(CN)c1 [Example 285, N-(5-(N′-ethylguanidino)-2-(N-ethyl-N-methyl-amino)phenylmethyl)amine trihydrochloride]
- IC50 [1]: 7.31 µM

Structure (SMILES): CCSC(=N)Nc1ccc(N(C)CC)c(CN)c1 [Example 288, N-(5-(S-ethylisothioureido)-2-(N-ethyl-N-methylamino)phenylmethyl)amine trihydrochloride]
- IC50 [1]: 1.26 µM

Structure (SMILES): N=C(Nc1cccc(C2(N)CCC2)c1)N[N+](=O)[O-] [Example 173, N-(1-(3-(N′-nitroguanidino)phenyl)cyclobutyl)amine hydrochoride]
- IC50 [1]: 0.0241 µM

Structure (SMILES): CCSC(=N)Nc1ccc(NCc2ccccc2)c(CN)c1 [Example 438, N-(2-benzylamino-5-(S-ethylisothioureido)phenylmethyl)amine trihydrochloride]
- IC50 [1]: 6.95 µM

Structure (SMILES): CCN=C(N)Nc1ccc(CCN)c(F)c1 [Example 258, N-(2-(4-(N′-ethylguanidino)-2-fluorophenyl)ethyl)amine dihydrochloride]
- IC50: 1.09 µM

Structure (SMILES): CCSC(=N)Nc1cccc(C2(N)CCC2)c1 [Example 162, N-(1-(3-(S-ethylisothioureido)phenyl)cyclobutyl)amine dihydrochloride]
- IC50 [1]: 0.576 µM

Structure (SMILES): CCN(C)C(=N)Nc1cccc(CN)c1 [Example 305, N-(3-(N′-ethyl-N′-methylguanidino)phenylmethyl)amine dihydrochloride]
- IC50 [1]: 1.71 µM

Structure (SMILES): CCN=C(N)Nc1cccc(CN(C)C)c1 [Example 374, N-(3-(N′-ethylguanidino)phenylmethyl)dimethylamine dihydrochloride]
- IC50 [1]: 1.29 µM

Structure (SMILES): CCSC(=N)Nc1cccc(CN(C)C)c1 [Example 372, N-(3-(S-ethylisothioureido)phenylmethyl)dimethylamine]
- IC50 [1]: 0.36 µM

Structure (SMILES): CSC(=N)Nc1cccc(C2(N)CCCCC2)c1 [Example 142, N-(1-(3-(S-methylisothioureido)phenyl)cyclohexyl)amine dihydrochloride]
- IC50: 0.663 µM

Structure (SMILES): CCSC(=N)Nc1ccc(C(CN)C(=O)OC)cc1 (centres unmarked) [Example 226, 3-amino-2-(4-(S-ethylisothioureido)phenyl)propionic acid methyl ester dihydrochloride]
- IC50 [1]: 1.44 µM

Structure (SMILES): CN=C(N)Nc1cccc(CN)c1 [Example 367, N-(3-(N′-methylguanidino)phenylmethyl)amine dihydrochloride]
- IC50 [1]: 3.71 µM

Structure (SMILES): CCN=C(N)Nc1cccc(C(C)(C)N)c1 [Example 300, N-(1-(3-(N′-ethylguanidino)phenyl)-1-methylethyl) amine dihydrochloride]
- IC50 [1]: 0.492 µM

Structure (SMILES): CCN=C(N)Nc1cccc(CCN)c1 [Example 543, N-(3-(N′-ethylguanidino)phenylethyl)amine dihydrochloride]
- IC50 [1]: 3.12 µM

Structure (SMILES): CCSC(=N)Nc1cccc(C(C)N)c1 (centres unmarked) [Example 175, N-(1-(3-(S-ethylisothioureido)phenyl)ethyl)amine dihydrochloride]
- IC50 [1]: 0.2 µM

Structure (SMILES): CCSC(=N)Nc1cccc(CNC)c1 [Example 47, N-(3-(S-ethylisothioureido)phenylmethyl)methylamine dihydrochloride]
- IC50 [1]: 0.0729 µM

Structure (SMILES): CCN=C(N)Nc1cccc(CN)c1C [Example 533, N-(3-(N′-ethylguanidino)-2-methylphenylmethyl)amine dihydrochloride]
- IC50 [1]: 3.77 µM

Structure (SMILES): CN(C)c1ccc(NC(N)=N[N+](=O)[O-])cc1CN [Example 281, N-(2-dimethylamino-5-(N′-nitroguanidino)phenylmethyl)amine dihydrochloride]
- IC50 [1]: 1.62 µM

Structure (SMILES): CCSC(=N)Nc1ccc(F)c(CN)c1 [Example 317, N-(5-(S-ethylisothioureido)-2-fluorophenylmethyl)amine dihydrochloride]
- IC50 [1]: 0.239 µM

Structure (SMILES): NC(=N[N+](=O)[O-])Nc1cccc(C2(N)CCCCC2)c1 [Example 169, N-(1-(3-(N′-nitroguanidino)phenyl)cyclohexyl)amine hydrochloride]
- IC50: 0.0415 µM

Structure (SMILES): CCN=C(N)Nc1cccc(C2(N)CCC2)c1 [Example 238, N-(1-(3-(N′-ethylguanidino)phenyl)cyclobutyl)amine dihydrochloride]
- IC50 [1]: 1.16 µM

Structure (SMILES): CSC(=N)Nc1cccc(C2(N)CCCC2)c1 [Example 151, N-(1-(3-(S-methylisothioureido)phenyl)cyclopentyl)amine dihydrochloride]
- IC50 [1]: 0.262 µM

Structure (SMILES): CCN=C(N)Nc1cccc(CNC)c1 [Example 376, N-(3-(N′-ethylguanidino)phenylmethyl)methylamine dihydrochloride]
- IC50 [1]: 0.339 µM

Structure (SMILES): CCSC(=N)Nc1cccc(C2(N)CCCC2)c1 [Example 153, N-(1-(3-(S-ethylisothioureido)phenyl)cyclopentyl)amine dihydrochloride]
- IC50 [1]: 0.423 µM

Structure (SMILES): CCN=C(N)Nc1ccc(CCN)cc1 [Example 528, N-(2-(4-(N′-ethylguanidino)phenyl)ethyl)amine dihydrochloride]
- IC50 [1]: 0.436 µM

Structure (SMILES): NCc1cc(NC(N)=N[N+](=O)[O-])ccc1OCc1ccccc1 [Example 341, N-(2-benzyloxy-5-(N′-nitroguanidino)phenylmethyl)amine hydrochloride]
- IC50 [1]: 0.874 µM

Structure (SMILES): CCSC(=N)Nc1cccc(CN)c1Cl [Example 137, N-(2-chloro-3-(S-ethylisothioureido)phenylmethyl)amine dihydrochloride]
- IC50 [1]: 0.485 µM
